The assay has as its target unphosphorylated-BTK kinase domain (UP-BTK), GST-tagged human BTK (389-659aa) (Homo sapiens (Human), UniProt Q06187). Briefly: BTK kinase Lanthascreen binding assay. Conditions: Lanthascreen tracer competition, 60 minutes incubation, pIC50 = negative log of the IC50 in molar; for IC50: read-out: BTK_I_binding pIC50 (converted). The method, boiled down:
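A fluorescent tracer is bound to unphosphorylated BTK; test compound is added to compete it off; the Lanthascreen signal is read and IC50 is fitted, then reported as its negative log in molar.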

unphosphorylated-BTK kinase domain (UP-BTK), GST-tagged human BTK (389-659aa), sequence (Q06187 389-659): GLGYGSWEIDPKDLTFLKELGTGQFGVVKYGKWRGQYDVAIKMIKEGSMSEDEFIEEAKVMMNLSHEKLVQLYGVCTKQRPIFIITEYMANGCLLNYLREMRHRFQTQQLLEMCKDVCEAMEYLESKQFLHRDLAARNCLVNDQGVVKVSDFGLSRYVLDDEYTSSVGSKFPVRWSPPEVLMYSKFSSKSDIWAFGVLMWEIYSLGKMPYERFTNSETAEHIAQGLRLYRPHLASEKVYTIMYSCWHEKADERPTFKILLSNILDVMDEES

Turning to `CC(=O)N1CCC[C@@H]1/C=C(\C#N)C(=O)N1CCC[C@@H](NC(=O)c2sc3nccc4c3c2NC(=O)N4c2ccc(Oc3ccccc3)cc2C)C1` [Example 683, N—((R)-1-((E)-3-((R)-1-Acetylpyrrolidin-2-yl)-2-cyanoacryloyl)piperidin-3-.l)-5-(2-methyl-4-phenoxyphenyl)-4-oxo-4,5-dihydro-3H-1-thia-3,5,8-triazaacenaphthylene-2-carboxamide], the “BTK_I_binding pIC50” value came out at 7.7.
Same read-out and setting: the result for `C=CC(=O)N1CCC[C@@H](NC(=O)c2sc3nccc4c3c2NC(=O)N4c2cc(-c3ccccc3)ncn2)C1` [Example 685, (R)—N-(1-Acryloylpiperidin-3-yl)-4-oxo-5-(6-phenylpyrimidin-4-yl)-4,5-dihydro-3H-1-thia-3,5,8-triazaacenaphthylene-2-carboxamide] reads 8.1.
On the same count and under the same terms, the result for `C=CC(=O)N1CCC[C@@H](NC(=O)c2sc3nccc4c3c2NC(=O)N4c2ccc(Oc3ccccc3)c(Cl)c2)C1` [Example 686, (R)—N-(1-Acryloylpiperidin-3-yl)-5-(3-chloro-4-phenoxyphenyl)-4-oxo-4,5-dihydro-3H-1-thia-3,5,8-triazaacenaphthylene-2-carboxamide] reads 7.6; that for `C=CC(=O)N1CCC[C@@H](NC(=O)c2sc3nccc4c3c2NC(=O)N4c2ccc(OC3CCC3)nc2)C1` [Example 687, (R)—N-(1-Acryloylpiperidin-3-yl)-5-(6-cyclobutoxypyridin-3-yl)-4-oxo-4,5-dihydro-3H-1-thia-3,5,8-triazaacenaphthylene-2-carboxamide], 7.5; that for `C=CC(=O)N1CCC[C@@H](NC(=O)c2sc3nccc4c3c2NC(=O)N4c2cc(-c3ccccc3)ccc2C)C1` [Example 688, (R)—N-(1-Acryloylpiperidin-3-yl)-5-(4-methyl-[1,1′-biphenyl]-3-yl)-4-oxo-4,5-dihydro-3H-1-thia-3,5,8-triazaacenaphthylene-2-carboxamide], 7.5.
As for `C=CC(=O)N1CCC[C@@H](NC(=O)c2sc3nccc4c3c2NC(=O)N4c2cccc(CC(C)C)c2)C1` [Example 689, (R)—N-(1-Acryloylpiperidin-3-yl)-5-(3-isobutylphenyl)-4-oxo-4,5-dihydro-3H-1-thia-3,5,8-triazaacenaphthylene-2-carboxamide], the “BTK_I_binding pIC50” value came to 7.6.
Still for that read-out and setting: the result for `C=CC(=O)N1CCC[C@@H](NC(=O)c2sc3nccc4c3c2NC(=O)N4c2ccnc(C3CCCC3)c2)C1` [Example 692, (R)—N-(1-Acryloylpiperidin-3-yl)-5-(2-cyclopentylpyridin-4-yl)-4-oxo-4,5-dihydro-3H-1-thia-3,5,8-triazaacenaphthylene-2-carboxamide] reads 8.0.
The same measure, in the same setting: in the case of `C=CC(=O)N1CCC[C@@H](NC(=O)c2sc3nccc4c3c2NC(=O)N4c2ccc(OC3CCCC3)cc2C)C1` [Example 693, (R)—N-(1-Acryloylpiperidin-3-yl)-5-(4-(cyclopentyloxy)-2-methylphenyl)-4-oxo-4,5-dihydro-3H-1-thia-3,5,8-triazaacenaphthylene-2-carboxamide] it was 7.9.
Take `C=CC(=O)N1CCC[C@@H](NC(=O)c2sc3nccc4c3c2NC(=O)N4c2ccc(OC)cc2C)C1` [Example 694, (R)—N-(1-Acryloylpiperidin-3-yl)-5-(4-methoxy-2-methylphenyl)-4-oxo-4,5-dihydro-3H-1-thia-3,5,8-triazaacenaphthylene-2-carboxamide]: the “BTK_I_binding pIC50” value is given as 7.1.
Same read-out and setting: the result for `C=CC(=O)N1CCC[C@@H](NC(=O)c2sc3nccc4c3c2NC(=O)N4c2cc(-c3ccccc3)ncc2C)C1` [Example 695, (R)—N-(1-Acryloylpiperidin-3-yl)-5-(5-methyl-2-phenylpyridin-4-yl)-4-oxo-4,5-dihydro-3H-1-thia-3,5,8-triazaacenaphthylene-2-carboxamide] reads 7.3; that for `C=CC(=O)N1CCC[C@@H](NC(=O)c2sc3nccc4c3c2NC(=O)N4c2ccc(OCCOC(C)C)cc2C)C1` [Example 696, (R)—N-(1-Acryloylpiperidin-3-yl)-5-(4-(2-isopropoxyethoxy)-2-methylphenyl)-4-oxo-4,5-dihydro-3H-1-thia-3,5,8-triazaacenaphthylene-2-carboxamide], 6.9.
For `C=CC(=O)N1CCC[C@@H](NC(=O)c2sc3nccc4c3c2NC(=O)N4c2ccnc(C(C)C)c2)C1` [Example 697, (R)—N-(1-Acryloylpiperidin-3-yl)-5-(2-isopropylpyridin-4-yl)-4-oxo-4,5-dihydro-3H-1-thia-3,5,8-triazaacenaphthylene-2-carboxamide], the “BTK_I_binding pIC50” value was determined as 6.9.
As for `C=CC(=O)N1CC[C@@H](NC(=O)c2sc3nccc4c3c2NC(=O)N4c2ccc(Oc3ccccc3)cn2)C1` [Example 698, (R)—N-(1-Acryloylpyrrolidin-3-yl)-4-oxo-5-(5-phenoxypyridin-2-yl)-4,5-dihydro-3H-1-thia-3,5,8-triazaacenaphthylene-2-carboxamide], the IC50 is 31.6 nM.
With `C=CC(=O)N1CC[C@@H](NC(=O)c2sc3nccc4c3c2NC(=O)N4c2cnc(Oc3ccccc3)cn2)C1` [Example 699, (R)—N-(1-Acryloylpyrrolidin-3-yl)-4-oxo-5-(5-phenoxypyrazin-2-yl)-4,5-dihydro-3H-1-thia-3,5,8-triazaacenaphthylene-2-carboxamide], the “BTK_I_binding pIC50” value came out at 7.2.
On to `C=CC(=O)N1CCC[C@@H](NC(=O)c2sc3nccc4c3c2NC(=O)N4c2ccnc(-c3cccnc3)c2)C1` [Example 701, (R)-5-([2,3′-Bipyridin]-4-yl)-N-(1-acryloylpiperidin-3-yl)-4-oxo-4,5-dihydro-3H-1-thia-3,5,8-triazaacenaphthylene-2-carboxamide], for which the “BTK_I_binding pIC50” value stood at 7.2.
`CN(C)C/C=C/C(=O)N1CC[C@@H](NC(=O)c2sc3nccc4c3c2NC(=O)N4c2ccc(Oc3ccccc3)c(Cl)c2)C1` [Example 703, (R,E)-5-(3-Chloro-4-phenoxyphenyl)-N-(1-(4-(dimethylamino)but-2-enoyl)pyrrolidin-3-yl)-4-oxo-4,5-dihydro-3H-1-thia-3,5,8-triazaacenaphthylene-2-carboxamide]: the “BTK_I_binding pIC50” value worked out at 7.8.
Still for that read-out and setting: in the case of `C=CC(=O)N1CCC[C@@H](NC(=O)c2sc3nccc4c3c2NC(=O)N4c2ccc(OC3CCC3)nc2C)C1` [Example 704, (R)—N-(1-Acryloylpiperidin-3-yl)-5-(6-cyclobutoxy-2-methylpyridin-3-yl)-4-oxo-4,5-dihydro-3H-1-thia-3,5,8-triazaacenaphthylene-2-carboxamide] it was 6.6.
Still for that read-out and setting: in the case of `C=CC(=O)N1CC[C@@H](NC(=O)c2sc3nccc4c3c2NC(=O)N4c2cccc(C(C)C)c2)C1` [Example 705, (R)—N-(1-Acryloylpyrrolidin-3-yl)-5-(3-isopropylphenyl)-4-oxo-4,5-dihydro-3H-1-thia-3,5,8-triazaacenaphthylene-2-carboxamide] it was 6.7.
The same measure, in the same setting: in the case of `O=C(N[C@@H]1CCCNC1)c1sc2nccc3c2c1NC(=O)N3c1cccc(-c2cccc(F)c2F)c1` [Example 706, (R)-5-(2′,3′-Difluoro-[1,1′-biphenyl]-3-yl)-4-oxo-N-(piperidin-3-yl)-4,5-dihydro-3H-1-thia-3,5,8-triazaacenaphthylene-2-carboxamide] it was 7.7.
In the case of `C=CC(=O)N1CCC[C@@H](NC(=O)c2sc3nccc4c3c2NC(=O)N4c2cccc(C3CCOCC3)c2)C1` [Example 708, (R)—N-(1-Acryloylpiperidin-3-yl)-4-oxo-5-(3-(tetrahydro-2H-pyran-4-yl)phenyl)-4,5-dihydro-3H-1-thia-3,5,8-triazaacenaphthylene-2-carboxamide], the “BTK_I_binding pIC50” value is 6.5.
Take `C=CC(=O)N1CCC[C@@H](NC(=O)c2sc3nccc4c3c2NC(=O)N4c2ccnc(-c3ccccn3)c2)C1` [Example 709, (R)-5-([2,2′-Bipyridin]-4-yl)-N-(1-acryloylpiperidin-3-yl)-4-oxo-4,5-dihydro-3H-1-thia-3,5,8-triazaacenaphthylene-2-carboxamide]: the “BTK_I_binding pIC50” value is 6.7.
Turning to `CN1CCC[C@@H](NC(=O)c2sc3nccc4c3c2NC(=O)N4c2cccc(-c3cccc(F)c3F)c2)C1` [Example 710, (R)-5-(2′,3′-Difluoro-[1,1′-biphenyl]-3-yl)-N-(1-methylpiperidin-3-yl)-4-oxo-4,5-dihydro-3H-1-thia-3,5,8-triazaacenaphthylene-2-carboxamide], the “BTK_I_binding pIC50” value turned out to be 7.4.
The same measure, in the same setting: the result for `Cc1nc(Oc2ccccc2)ccc1N1C(=O)Nc2c(C(=O)N[C@@H]3CCCNC3)sc3nccc1c23` [Example 711, (R)-5-(2-methyl-6-phenoxypyridin-3-yl)-4-oxo-N-(piperidin-3-yl)-4,5-dihydro-3H-1-thia-3,5,8-triazaacenaphthylene-2-carboxamide] reads 6.6; that for `CNCC(=O)N1CCC[C@@H](NC(=O)c2sc3nccc4c3c2NC(=O)N4c2ccnc(-c3ccccc3)c2)C1` [Example 714, (R)—N-(1-(Methylglycyl)piperidin-3-yl)-4-oxo-5-(2-phenylpyridin-4-yl)-4,5-dihydro-3H-1-thia-3,5,8-triazaacenaphthylene-2-carboxamide], 6.5; that for `C=CC(=O)N1C[C@@H](O)[C@@H](NC(=O)c2sc3nccc4c3c2NC(=O)N4c2ccnc(-c3ccccc3)c2)C1` [Example 718, N-((3S,4R)-1-Acryloyl-4-hydroxypyrrolidin-3-yl)-4-oxo-5-(2-phenylpyridin-4-yl)-4,5-dihydro-3H-1-thia-3,5,8-triazaacenaphthylene-2-carboxamide], 6.3.
On to `O=C(N[C@@H]1CCCNC1)c1sc2nccc3c2c1NC(=O)N3c1ncc(Oc2ccccc2)cn1` [Example 719, (R)-4-Oxo-5-(5-phenoxypyrimidin-2-yl)-N-(piperidin-3-yl)-4,5-dihydro-3H-1-thia-3,5,8-triazaacenaphthylene-2-carboxamide], for which the IC50 was 501 nM.

These data come from US10800792B2, “Inhibitors of Bruton's tyrosine kinase and method of their use” (JANSSEN PHARMACEUTICA NV, priority 2015, dated 2020).
